What is called IC50 is the midpoint of a concentration-inhibition curve. Broadly, the melting point is the temperature of the solid-liquid transition.

Series [1] deals with T1, wild type AXL (wtAXL) receptor tyrosine kinase (Homo sapiens, UniProt P30530).
T1 construct: WtAXL cDNA was cloned into vector pLXSN(ESK) and transfected into Phoenix E packaging cells; expressed in transfected cells; host or cells: NIH3T3 N7 mouse fibroblasts, retrovirally infected (clone 22)
T1 sequence (P30530 26-894): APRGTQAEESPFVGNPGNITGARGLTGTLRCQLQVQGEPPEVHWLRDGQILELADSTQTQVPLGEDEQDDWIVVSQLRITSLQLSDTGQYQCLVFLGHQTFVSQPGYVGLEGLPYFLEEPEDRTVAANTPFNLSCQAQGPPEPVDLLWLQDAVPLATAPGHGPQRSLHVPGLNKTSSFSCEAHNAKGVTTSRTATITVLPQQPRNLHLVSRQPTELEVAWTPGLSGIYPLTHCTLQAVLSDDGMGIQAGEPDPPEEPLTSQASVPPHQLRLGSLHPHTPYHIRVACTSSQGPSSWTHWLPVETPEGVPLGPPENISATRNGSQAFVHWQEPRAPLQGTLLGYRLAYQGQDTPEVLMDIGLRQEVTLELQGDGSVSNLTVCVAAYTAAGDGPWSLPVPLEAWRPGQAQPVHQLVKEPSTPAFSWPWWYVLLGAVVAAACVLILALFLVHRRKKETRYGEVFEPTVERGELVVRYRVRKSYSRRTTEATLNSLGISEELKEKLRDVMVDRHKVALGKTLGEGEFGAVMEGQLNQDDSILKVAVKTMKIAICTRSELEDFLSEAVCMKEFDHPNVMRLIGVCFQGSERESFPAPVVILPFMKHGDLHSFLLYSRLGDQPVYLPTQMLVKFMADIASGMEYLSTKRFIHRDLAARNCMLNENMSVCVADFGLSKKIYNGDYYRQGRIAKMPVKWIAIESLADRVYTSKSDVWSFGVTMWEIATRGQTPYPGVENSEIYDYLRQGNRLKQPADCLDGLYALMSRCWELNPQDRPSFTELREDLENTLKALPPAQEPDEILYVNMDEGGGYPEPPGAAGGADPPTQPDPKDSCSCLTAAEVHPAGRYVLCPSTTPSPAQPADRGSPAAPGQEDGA
The experiment in a line: NIH-3T3-AXL cellular tyrosine kinase assay (inhibition of AXL phosphorylation). The format is cell-based. As to conditions: AXL phosphorylation in NIH-3T3-AXL (clone 22) cells, serum-depleted, 2 h with compound, immunoprecipitation / anti-phosphotyrosine blot. The method in brief:
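NIH3T3 clones stably expressing human wtAXL (puromycin-selected) were exposed to serially diluted compounds for 2 h. AXL was immunoprecipitated from lysates with anti-AXL antibody, and phosphorylation detected by anti-phosphotyrosine (4G10) western blot with ECL.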

Take `COc1cc2nccc(Oc3ccc(NS(=O)(=O)c4ccc5c(c4)CC(=O)N5C)cc3OC)c2cc1OC` [Example A145, 1-Methyl-2-oxo-2,3-dihydro-1H-indole-5-sulfonic acid [4-(6,7-dimethoxy-quinolin-4-yloxy)-3-methoxy-phenyl]-amide]: the melting point was 150 to 152 °C. The concentration for half-maximal inhibition (IC50) in series [1] is greater than 10 µM.
For `COc1cc2nccc(Oc3ccc(NS(=O)(=O)c4ccc(Cl)cc4F)cc3)c2cc1OC` [Example A134, 4-Chloro-N-[4-(6,7-dimethoxy-quinolin-4-yloxy)-phenyl]-2-fluoro-benzenesulfonamide] the same measures were 218 to 220 °C and greater than 1 µM.
Regarding `COc1cc2nccc(Oc3ccc(NS(=O)(=O)c4csc5ccccc45)cc3F)c2cc1OC` [Example A108, Benzo[b]thiophene-3-sulfonic acid [4-(6,7-dimethoxy-quinolin-4-yloxy)-3-fluoro-phenyl]-amide], the melting point is 191 to 193 °C. For the same compound, the IC50 in series [1] was greater than 1 µM.
`COc1cc2nccc(Oc3ccc(NS(=O)(=O)c4ccc(C)s4)c(F)c3)c2cc1OC` [Example A21, 5-Methyl-thiophene-2-sulfonic acid [4-(6,7-dimethoxy-quinolin-4-yloxy)-2-fluoro-phenyl]-amide] showed a melting point of 218 to 220 °C. Besides, in series [1], the IC50 was found to be 4.7 µM.
In turn, `COc1cc2nccc(Oc3ccc(NS(=O)(=O)c4cc(C)c(NC(C)=O)c(C)c4)cc3)c2cc1OC` [Example A66, N-{4-[4-(6,7-Dimethoxy-quinolin-4-yloxy)-phenylsulfamoyl]-2,6-dimethyl-phenyl}-acetamide] returned a melting point of 145 to 147 °C. The IC50 in series [1] was greater than 10 µM.
Consider `COc1cc2c(Oc3ccc(NS(=O)(=O)c4cccc5ccccc45)cc3F)ccnc2cc1OCCCN1CCC(C)CC1` [Example D21, Naphthalene-1-sulfonic acid (3-fluoro-4-{6-methoxy-7-[3-(4-methyl-piperidin-1-yl)-propoxy]-quinolin-4-yloxy}-phenyl)-amide], for which the melting point lay within 140 to 143 °C. Besides, in series [1], the concentration for half-maximal inhibition (IC50) worked out at 0.347 µM.
For the compound `Cc1cc(Oc2ccc(NS(=O)(=O)c3ccc(Cl)s3)cc2)c2cc(F)ccc2n1` [Example B18, 5-Chloro-thiophene-2-sulfonic acid [4-(6-fluoro-2-methyl-quinolin-4-yloxy)-phenyl]-amide], the melting point lay in the range of 170 to 172 °C. In addition, in series [1], the half-maximal inhibitory concentration (IC50) is greater than 10 µM.
The matching figures for `COc1cc2nccc(Oc3ccc(NS(=O)(=O)c4cccc(F)c4C)c(F)c3)c2cc1OC` [Example A58, N-[4-(6,7-Dimethoxy-quinolin-4-yloxy)-2-fluoro-phenyl]-3-fluoro-2-methyl-benzenesulfonamide]: 204 to 206 °C and greater than 1 µM.
The matching figures for `COc1cc2nccc(Oc3ccc(NS(=O)(=O)c4cccc(-c5ncccn5)c4)c(C)c3)c2cc1OC` [Example A93, N-[4-(6,7-Dimethoxy-quinolin-4-yloxy)-2-methyl-phenyl]-3-pyrimidin-2-yl-benzenesulfonamide]: 103 to 105 °C and greater than 3 µM.
In the case of `Cc1cc(Oc2ccc(NS(=O)(=O)c3cccc4ccccc34)c(F)c2)c2cccc(C(F)(F)F)c2n1` [Example C04, Naphthalene-1-sulfonic acid [2-fluoro-4-(2-methyl-8-trifluoromethyl-quinolin-4-yloxy)-phenyl]-amide], the melting point was in the range of 232 to 234 °C. In series [1], the IC50 was greater than 10 µM.
For `COc1cccc(S(=O)(=O)Nc2ccc(Oc3ccnc4cc(OC)c(OC)cc34)cc2F)c1` [Example A27, N-[4-(6,7-Dimethoxy-quinolin-4-yloxy)-2-fluoro-phenyl]-3-methoxy-benzenesulfonamide] the same measures were 224 to 225 °C and 2.54 µM.
The compound `COc1cc2nccc(Oc3ccc(NS(=O)(=O)c4cc(Cl)c(O)c(Cl)c4)cc3)c2cc1OC` [Example A155, 3,5-Dichloro-N-[4-(6,7-dimethoxy-quinolin-4-yloxy)-phenyl]-4-hydroxy-benzenesulfonamide] registered a melting point greater than 260 °C. For the same compound, the half-inhibitory concentration (IC50) in series [1] is greater than 3 µM.
Take `CCCS(=O)(=O)Nc1ccc(Oc2ccnc3cc(OCCCN4CCC(C)CC4)c(OC)cc23)c(F)c1` [Example D22, Propane-1-sulfonic acid (3-fluoro-4-{6-methoxy-7-[3-(4-methyl-piperidin-1-yl)-propoxy]-quinolin-4-yloxy}-phenyl)-amide]: the melting point lay within 160 to 162 °C. Besides, the half-maximal inhibitory concentration (IC50) in series [1] worked out at 0.477 µM.
`Cc1cc(Oc2ccc(NS(=O)(=O)c3ccc4c(c3)CC(=O)N4C)c(F)c2)c2cccc(C(F)(F)F)c2n1` [Example C19, 1-Methyl-2-oxo-2,3-dihydro-1H-indole-5-sulfonic acid [2-fluoro-4-(2-methyl-8-trifluoro-methyl-quinolin-4-yloxy)-phenyl]-amide] had a melting point of 225 to 226 °C. For the same compound, the 50% inhibitory concentration (IC50) in series [1] was greater than 10 µM.
As to `COc1cc2nccc(Oc3ccc(NS(=O)(=O)c4cccc5ccccc45)c(C)c3)c2cc1OC` [Example A91, Naphthalene-1-sulfonic acid [4-(6,7-dimethoxy-quinolin-4-yloxy)-2-methyl-phenyl]-amide], the melting point lay within 233 to 235 °C. The IC50 in series [1] is greater than 10 µM.
On to `Cc1cc(Oc2ccc(NS(=O)(=O)c3cccs3)c(F)c2)c2cc(F)ccc2n1` [Example B1, Thiophene-2-sulfonic acid [2-fluoro-4-(6-fluoro-2-methyl-quinolin-4-yloxy)-phenyl]-amide], for which the melting point fell in the range of 166 to 167 °C. Moreover, the IC50 in series [1] is greater than 10 µM.
Regarding `COc1cc2nccc(Oc3ccc(NS(=O)(=O)c4csc5ccccc45)cc3)c2cc1OC` [Example A84, Benzo[b]thiophene-3-sulfonic acid [4-(6,7-dimethoxy-quinolin-4-yloxy)-phenyl]-amide], the melting point was 267 to 270 °C. In addition, the IC50 in series [1] was greater than 3 µM.
`Cc1cc(Oc2ccc(NS(=O)(=O)c3cnc(C)[nH]3)cc2F)c2cccc(C(F)(F)F)c2n1` [Example C13, 2-Methyl-3H-imidazole-4-sulfonic acid [3-fluoro-4-(2-methyl-8-trifluoromethyl-quinolin-4-yloxy)-phenyl]-amide] gave a melting point of 258 to 259 °C. The half-inhibitory concentration (IC50) in series [1] is greater than 1 µM.
`COc1cc2nccc(Oc3ccc(NS(=O)(=O)c4cccc(C)c4)c(F)c3)c2cc1OC` [Example A26, N-[4-(6,7-Dimethoxy-quinolin-4-yloxy)-2-fluoro-phenyl]-3-methyl-benzenesulfonamide] displayed a melting point of 244 to 245 °C. Also, in series [1], the half-inhibitory concentration (IC50) came out at 4.73 µM.
For `Cc1cc(Oc2ccc(NS(=O)(=O)c3c(F)cccc3F)c(F)c2)c2cc(F)ccc2n1` [Example B6, 2,6-Difluoro-N-[2-fluoro-4-(6-fluoro-2-methyl-quinolin-4-yloxy)-phenyl]-benzenesulfonamide], the melting point is 188 to 190 °C. Further, the IC50 in series [1] was greater than 10 µM.
`COc1cc2nccc(Oc3ccc(NS(=O)(=O)c4cccc(Oc5ccccc5)c4)c(F)c3)c2cc1OC` [Example A30, N-[4-(6,7-Dimethoxy-quinolin-4-yloxy)-2-fluoro-phenyl]-3-phenoxy-benzenesulfonamide] came in with a melting point of 179 to 180 °C. In addition, in series [1], the IC50 was 0.63 µM.

(Values after patent US9206130B2, “Quinoline derivatives as AXL kinase inhibitors” (Max-Planck-Gesellschaft zur Förderung der Wissenschaften …, priority 2008, dated 2015).)
